Measurements as given in patent US6756354B2, “Therapeutic compositions containing oligo (ethylene glycol)-terminated 1,2-dithiolanes and their conjugates” (priority 2001, dated 2004).
Counter-ions that a name gives are not always drawn.

Experiments:
[1] = oral; presystemic glucuronide conjugation; cited from earlier work
[2] = mouse

For `O=C(c1ccc(OCCN2CCCCC2)cc1)c1c(-c2ccc(O)cc2)sc2cc(O)ccc12` [Raloxifene, [6-hydroxy-2-(4-hydroixyphenyl)benzo[b]thien-3-yl]-4-[2-(1-piperidinyl)ethoxy]phenyl]methanone hydrochloride], the absolute bioavailability [1] is listed as “about 2%”.

In the case of “OEG-terminated 1,2-dithiolane-conjugated insulin: insulin conjugated at lysine-29 of the beta-chain with NHS-ester of carboxyl-OEG-terminated thioctamide (x is 8)”, the “oral bioavailability (concluded from glucose reduction)” value ([2]; in vivo, po) is reported as “orally bioavailable” and the serum glucose ([2]; oral gavage, 10 mg/mL solution, 10 mL/kg dose) is reported as “reduction”.
